Type in all cases: cell-based
Test [1] deals with NCI-H3255. The test can be described thus: Cell proliferation assay (CellTiter-Glo), NCI-H3255. The note with it: Homo sapiens, value marked (H3255), read-out: 3T3 L858R IC50, (H3255). The method, then:
(§1) Cell proliferation was measured using the CellTiter-Glo® Luminescent Cell Viability Assay. The assay involves the addition of a single reagent (CellTiter-Glo® Reagent) directly to cells cultured in serum-supplemented medium. The assay uses this one-step addition to induce cell lysis and generate a luminescent signal proportional to the amount of ATP present which is directly proportional to the number of metabolically active cells present in culture. The following cell lines were evaluated in this assay: NIH3T3/EGFR_L858R, NIH3T3/EGFR_E746-A750_deletion, NIH3T3/EGFR L858R+T790M, NIH3T3/EGFR_E746-A750_deletion+T790M, PC-9, PC9-DRH, NCI-H1975, and NCI-H3255. NIH/3T3 parental cells, NCI-H1975, and NCI-H3255 were purchased from the American Type Culture Collection (Manassas, Va.), and PC-9 cells were obtained from Japan. All cells were cultured according to recommendations. NIH/3T3 cells were grown in DMEM (Invitrogen, Carlsbad, Calif.) supplemented with 10% newborn calf serum (Invitrogen), and NIH3T3/EGFR mutant cells were grown in complete media with 5 μg/mL puromycin (Invitrogen). PC-9, NCI-H1975, and NCI-H3255 were grown in RPMI (Invitrogen, Carlsbad, Calif.) supplemented with 10% FBS (Sigma, St Louis, Mo.), and PC9-DRH cells were grown in complete media with 2 uM PF-00299804. Plasmids (pLPCX) with various EGFR constructs were made by GenScript (Piscataway, N.J.), and stable pools of NIH/3T3 cells expressing these constructs were made at Pfizer La Jolla. PC9-DRH cells were generated at Pfizer La Jolla by exposing cells to increasing concentrations of PF-00299804. Cells were plated in complete culture media (3000-5000 cells/well, 50 μl/well) on the bottom of white clear-bottom tissue culture treated microtiter plates (#3610, Corning Inc, Corning, N.Y.) and allowed to adhere overnight at 37° C., 5% CO2. The following day, compound dilution plates were prepared in 96 well clear V-bottom 0.5 mL polypropylene block plates (#3956, Corning, Inc). All cell lines were not evaluated for each compound. Each compound evaluated was prepared as a DMSO stock solution (10 mM). Compounds were tested in duplicate on each plate, with an 11-point serial dilution curve (1:3 dilution). Compound treatment (50 μl) was added from the compound dilution plate to the cell plate. The highest compound concentration was 1 or 10 μM (final), with a 0.3% final DMSO (#D-5879, Sigma, St Louis, Mo.) concentration. Plates were then incubated at 37° C., 5% CO2. After three to five days of compound treatment, CellTiter-Glo® Reagent (#G7573, Promega, Madison, Wis.) was prepared in one of two ways. If thawing a frozen aliquot of CellTiter-Glo® Reagent, the aliquot was thawed and equilibrated to room temperature prior to use while keeping it protected from light. Alternatively, new bottles of CellTiter-Glo® Buffer and CellTiter-Glo® Substrate were thawed and equilibrated to room temperature prior to use. CellTiter-Glo® Buffer (100 mL) was transferred into the amber bottle containing CellTiter-Glo® Substrate to reconstitute the lyophilized enzyme/substrate mixture, forming the CellTiter-Glo® Reagent. The reconstituted reagent was mixed by gently inverting the contents to obtain a homogeneous solution, and went into solution easily in less than one minute. Any unused reconstituted CellTiter-Glo® Reagent was immediately aliquoted and frozen at −20° C., protected from light. Cell plates were equilibrated at room temperature for approximately 30 minutes. An equivolume amount of CellTiter-Glo® Reagent (100 μL) was added to each well. Plates were mixed for two minutes on an orbital shaker to induce cell lysis, and then allowed to incubate at room temperature for 10 minutes to stabilize the luminescent signal. Luminescence was recorded using the PerkinElmer EnVision Excite Multilabel Reader used for endpoint reading for Luminescence detection (Waltham, Mass.). Data were analyzed using a four-parameter fit in Microsoft Excel. […]

Test [2] has as its system PC-9. Briefly: Cell proliferation assay (CellTiter-Glo), PC-9. The note with it: Homo sapiens, value marked (PC9), read-out: 3T3 del IC50, (PC9). The method, then: as §1
For test [3], the target named is T1, EGFR L858R+T790M, endogenous (Homo sapiens, UniProt P00533, L858R/T790M).
T1 construct: NCI-H1975 (EGFR L858R+T790M, endogenous); host or cells: NCI-H1975
Briefly: pEGFR Y1068 ELISA assay, NCI-H1975 cells.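 Note: sandwich ELISA of endogenous phospho-EGFR (Tyr1068) in lysates of treated cells, 11-point 1:3 serial dilution tested in duplicate per plate.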 The note with it: value marked (H1975): NCI-H1975 cells, 2 hrs compound treatment; read-out: pEGFRY1068 ELISA3T3T790M—L858R IC50 (nM), (H1975).

Test [4] deals with NIH3T3/EGFR L858R+T790M. Briefly: Cell proliferation assay (CellTiter-Glo), NIH3T3/EGFR L858R+T790M. The note with it: Mus musculus, NIH3T3, 120 h, 3T3 cell line, three to five days of compound treatment, read-out: 3T3 L858R_T790M IC50.
Test [5] concerns PC9-DRH. The test can be described thus: Cell proliferation assay (CellTiter-Glo), PC9-DRH. The note with it: value marked (PC9-DRH), read-out: 3T3 del_T790M IC50, (PC9-DRH). The method, then:
as §1

For test [6], the target named is T2, EGFR L858R, endogenous (Homo sapiens, UniProt P00533, L858R).
T2 construct: NCI-H3255 (EGFR L858R, endogenous); endogenous in cells; host or cells: NCI-H3255
Briefly: pEGFR Y1068 ELISA assay, NCI-H3255 cells. The note with it: value marked (H3255): NCI-H3255 cells, 2 hrs compound treatment; read-out: pEGFRY1068 ELISA3T3 L858R IC50 (nM), (H3255).

Test [7] addresses T3, EGFR Del (PC9) (Homo sapiens, UniProt P00533, DEL746-750).
T3 construct: endogenous in cells; host or cells: PC-9
The test can be described thus: EGFR ELISA, PC9 Del cells.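 Note: cellular EGFR autophosphorylation at Tyr1068 quantified by sandwich ELISA of cell lysates after 2 h compound exposure at 37 °C, 11-point threefold dilution series.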 The note with it: read-out: EGFR_ELISA9E PC9 Del IC50.

Test [8] concerns the target T4, EGFR wildtype, endogenous (Homo sapiens, UniProt P00533).
T4 construct: A549 (EGFR wildtype, endogenous); host or cells: A549
The test can be described thus: pEGFR Y1068 ELISA assay, A549 cells.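 Note: sandwich ELISA of phospho-EGFR Tyr1068 in cell lysates, cells exposed to compound for 2 h before EGF stimulation, 11-point threefold dilution series run in duplicate.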 The settings on record: full serum media, stimulated 10 min with EGF (40 ng/mL), read-out: pEGFRY1068 ELISAA549 IC50.

Test [9] deals with EGFR L858R+T790M (Homo sapiens, UniProt P00533, L858R/T790M). The test can be described thus: pEGFR Y1068 ELISA assay, NIH3T3/EGFR_L858R+T790M cells.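 Note: sandwich ELISA of EGFR phosphorylated at Tyr1068 in lysates of stably transfected NIH/3T3 cells, 11-point threefold dilution series run in duplicate.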 The settings on record: 3T3 cell line, 2 hrs compound treatment; read-out: pEGFRY1068 ELISA3T3T790M—L858R IC50.
Test [10] relates to NIH3T3/EGFR_E746-A750_deletion+T790M. Briefly: Cell proliferation assay (CellTiter-Glo), NIH3T3/EGFR_E746-A750_deletion+T790M. The note with it: Mus musculus, NIH3T3, 120 h, 3T3 cell line, three to five days of compound treatment, read-out: 3T3 del_T790M IC50. The procedure, abridged:
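NIH3T3 pools stably expressing EGFR mutants (puromycin, 10% newborn calf serum) or PC-9-derived lines (RPMI, 10% FBS) were plated at 3000-5000 cells/well and attached overnight. Cells received an 11-point 1:3 dilution, top 1 or 10 μM final, 0.3% DMSO, for three to five days at 37 °C. CellTiter-Glo luminescence was fitted with four parameters.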

Test [11] deals with EGFR L858R (Homo sapiens, UniProt P00533, L858R). The test can be described thus: pEGFR Y1068 ELISA assay, NIH3T3/EGFR_L858R cells.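 Note: sandwich ELISA of phospho-EGFR Tyr1068 in lysates of stably transfected NIH/3T3 pools after 2 h compound exposure at 37 °C, 11-point threefold dilution series run in duplicate.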 The settings on record: 3T3 cell line, 2 hrs compound treatment; read-out: pEGFRY1068 ELISA3T3 L858R IC50.
Test [12] deals with NCI-H1975. The test can be described thus: Cell proliferation assay (CellTiter-Glo), NCI-H1975. The note with it: Homo sapiens, value marked (H1975), read-out: 3T3 L858R_T790M IC50, (H1975). The method, then: as §1

SMILES strings stand for the structures.

T4 sequence (P00533 25-1210): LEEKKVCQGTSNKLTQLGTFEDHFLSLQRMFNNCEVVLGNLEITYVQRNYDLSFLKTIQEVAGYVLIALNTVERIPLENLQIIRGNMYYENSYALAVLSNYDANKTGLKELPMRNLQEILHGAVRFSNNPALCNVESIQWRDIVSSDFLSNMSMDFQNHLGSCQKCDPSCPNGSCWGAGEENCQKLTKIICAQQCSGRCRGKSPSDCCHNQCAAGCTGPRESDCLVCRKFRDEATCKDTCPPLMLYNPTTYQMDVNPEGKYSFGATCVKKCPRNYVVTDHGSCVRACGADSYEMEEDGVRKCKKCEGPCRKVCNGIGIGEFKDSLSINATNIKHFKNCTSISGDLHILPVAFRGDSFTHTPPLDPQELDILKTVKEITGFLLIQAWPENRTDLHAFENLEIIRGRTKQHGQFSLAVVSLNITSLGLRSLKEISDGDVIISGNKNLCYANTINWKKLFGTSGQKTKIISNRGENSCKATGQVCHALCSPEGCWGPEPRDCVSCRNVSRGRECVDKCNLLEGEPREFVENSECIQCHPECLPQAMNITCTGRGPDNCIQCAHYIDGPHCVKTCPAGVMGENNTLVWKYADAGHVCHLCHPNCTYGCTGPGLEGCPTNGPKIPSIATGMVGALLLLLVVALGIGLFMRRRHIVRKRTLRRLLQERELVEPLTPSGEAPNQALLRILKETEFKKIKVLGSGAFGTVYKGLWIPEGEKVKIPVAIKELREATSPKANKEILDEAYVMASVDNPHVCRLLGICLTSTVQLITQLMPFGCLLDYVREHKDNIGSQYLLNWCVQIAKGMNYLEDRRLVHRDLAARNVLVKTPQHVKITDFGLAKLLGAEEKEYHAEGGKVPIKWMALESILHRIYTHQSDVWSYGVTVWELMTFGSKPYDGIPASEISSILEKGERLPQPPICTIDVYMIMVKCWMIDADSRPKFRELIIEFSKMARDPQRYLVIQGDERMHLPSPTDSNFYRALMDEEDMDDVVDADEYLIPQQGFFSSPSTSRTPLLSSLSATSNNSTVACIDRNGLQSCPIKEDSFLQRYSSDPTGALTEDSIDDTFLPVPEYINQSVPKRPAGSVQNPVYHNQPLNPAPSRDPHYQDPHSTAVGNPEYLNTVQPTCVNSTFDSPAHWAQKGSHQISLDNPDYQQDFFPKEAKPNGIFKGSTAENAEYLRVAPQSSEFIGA
T2 sequence (P00533 25-1210 L858R): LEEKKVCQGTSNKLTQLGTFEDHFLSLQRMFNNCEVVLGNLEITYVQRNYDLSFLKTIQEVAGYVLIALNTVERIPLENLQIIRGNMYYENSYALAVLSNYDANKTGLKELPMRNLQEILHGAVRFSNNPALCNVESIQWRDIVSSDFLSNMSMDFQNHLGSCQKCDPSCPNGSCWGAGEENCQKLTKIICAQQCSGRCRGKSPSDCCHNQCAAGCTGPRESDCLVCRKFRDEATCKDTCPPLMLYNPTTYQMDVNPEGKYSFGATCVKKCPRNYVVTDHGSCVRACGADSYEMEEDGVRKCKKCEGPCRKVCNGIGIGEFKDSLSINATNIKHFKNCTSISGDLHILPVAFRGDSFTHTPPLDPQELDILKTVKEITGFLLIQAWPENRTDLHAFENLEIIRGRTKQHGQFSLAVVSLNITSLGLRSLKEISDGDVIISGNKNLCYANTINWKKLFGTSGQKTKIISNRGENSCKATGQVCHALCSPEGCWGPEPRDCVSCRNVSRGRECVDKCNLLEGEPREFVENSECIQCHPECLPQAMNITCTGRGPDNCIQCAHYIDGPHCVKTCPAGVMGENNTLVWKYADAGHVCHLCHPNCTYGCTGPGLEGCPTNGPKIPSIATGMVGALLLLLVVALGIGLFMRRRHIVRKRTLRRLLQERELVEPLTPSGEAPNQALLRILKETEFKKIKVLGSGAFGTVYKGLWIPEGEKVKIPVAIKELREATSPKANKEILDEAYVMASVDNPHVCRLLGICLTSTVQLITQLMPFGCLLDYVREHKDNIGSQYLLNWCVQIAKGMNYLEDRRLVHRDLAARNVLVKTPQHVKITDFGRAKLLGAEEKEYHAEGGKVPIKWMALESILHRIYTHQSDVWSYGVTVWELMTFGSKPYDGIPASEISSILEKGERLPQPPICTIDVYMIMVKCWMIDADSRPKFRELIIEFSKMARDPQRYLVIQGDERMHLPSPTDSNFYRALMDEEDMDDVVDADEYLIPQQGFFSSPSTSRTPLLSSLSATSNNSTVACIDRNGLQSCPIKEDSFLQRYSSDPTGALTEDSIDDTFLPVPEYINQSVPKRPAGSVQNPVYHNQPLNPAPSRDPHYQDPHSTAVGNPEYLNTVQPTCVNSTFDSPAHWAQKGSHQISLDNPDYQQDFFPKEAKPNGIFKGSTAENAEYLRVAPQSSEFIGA
T3 sequence (P00533 with tags, fused parts or gaps DEL746-750): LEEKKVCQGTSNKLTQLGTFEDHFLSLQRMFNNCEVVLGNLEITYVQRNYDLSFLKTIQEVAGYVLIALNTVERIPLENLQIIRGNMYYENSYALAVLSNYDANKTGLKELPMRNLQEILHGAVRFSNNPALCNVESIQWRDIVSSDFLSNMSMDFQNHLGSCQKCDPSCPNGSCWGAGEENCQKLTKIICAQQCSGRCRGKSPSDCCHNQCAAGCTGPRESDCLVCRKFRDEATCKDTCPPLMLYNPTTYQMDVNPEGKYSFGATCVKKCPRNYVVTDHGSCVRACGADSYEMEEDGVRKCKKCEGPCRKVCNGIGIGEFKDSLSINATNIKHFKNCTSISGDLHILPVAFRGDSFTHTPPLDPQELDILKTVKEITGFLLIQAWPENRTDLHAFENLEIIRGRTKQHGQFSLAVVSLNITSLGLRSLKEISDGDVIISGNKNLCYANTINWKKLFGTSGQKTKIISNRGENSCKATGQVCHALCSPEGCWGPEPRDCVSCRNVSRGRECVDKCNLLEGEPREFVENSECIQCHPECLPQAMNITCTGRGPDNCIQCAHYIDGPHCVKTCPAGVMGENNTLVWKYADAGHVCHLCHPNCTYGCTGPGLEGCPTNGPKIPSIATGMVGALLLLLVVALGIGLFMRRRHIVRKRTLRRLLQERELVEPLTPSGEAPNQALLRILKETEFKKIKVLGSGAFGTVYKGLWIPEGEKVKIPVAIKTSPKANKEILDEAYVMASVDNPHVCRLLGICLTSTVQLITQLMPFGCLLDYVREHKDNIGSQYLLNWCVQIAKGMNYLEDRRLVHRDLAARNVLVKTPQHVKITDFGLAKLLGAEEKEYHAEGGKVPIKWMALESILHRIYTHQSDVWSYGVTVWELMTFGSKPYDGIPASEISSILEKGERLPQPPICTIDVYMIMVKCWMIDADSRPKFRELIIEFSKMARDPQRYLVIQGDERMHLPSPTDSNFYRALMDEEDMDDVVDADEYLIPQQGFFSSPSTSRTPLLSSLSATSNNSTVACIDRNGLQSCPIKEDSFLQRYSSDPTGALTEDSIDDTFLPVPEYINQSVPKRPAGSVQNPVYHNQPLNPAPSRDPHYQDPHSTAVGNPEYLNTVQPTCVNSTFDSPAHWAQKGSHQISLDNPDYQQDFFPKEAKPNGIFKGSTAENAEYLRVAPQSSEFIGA
T1 sequence (P00533 25-1210 T790M/L858R): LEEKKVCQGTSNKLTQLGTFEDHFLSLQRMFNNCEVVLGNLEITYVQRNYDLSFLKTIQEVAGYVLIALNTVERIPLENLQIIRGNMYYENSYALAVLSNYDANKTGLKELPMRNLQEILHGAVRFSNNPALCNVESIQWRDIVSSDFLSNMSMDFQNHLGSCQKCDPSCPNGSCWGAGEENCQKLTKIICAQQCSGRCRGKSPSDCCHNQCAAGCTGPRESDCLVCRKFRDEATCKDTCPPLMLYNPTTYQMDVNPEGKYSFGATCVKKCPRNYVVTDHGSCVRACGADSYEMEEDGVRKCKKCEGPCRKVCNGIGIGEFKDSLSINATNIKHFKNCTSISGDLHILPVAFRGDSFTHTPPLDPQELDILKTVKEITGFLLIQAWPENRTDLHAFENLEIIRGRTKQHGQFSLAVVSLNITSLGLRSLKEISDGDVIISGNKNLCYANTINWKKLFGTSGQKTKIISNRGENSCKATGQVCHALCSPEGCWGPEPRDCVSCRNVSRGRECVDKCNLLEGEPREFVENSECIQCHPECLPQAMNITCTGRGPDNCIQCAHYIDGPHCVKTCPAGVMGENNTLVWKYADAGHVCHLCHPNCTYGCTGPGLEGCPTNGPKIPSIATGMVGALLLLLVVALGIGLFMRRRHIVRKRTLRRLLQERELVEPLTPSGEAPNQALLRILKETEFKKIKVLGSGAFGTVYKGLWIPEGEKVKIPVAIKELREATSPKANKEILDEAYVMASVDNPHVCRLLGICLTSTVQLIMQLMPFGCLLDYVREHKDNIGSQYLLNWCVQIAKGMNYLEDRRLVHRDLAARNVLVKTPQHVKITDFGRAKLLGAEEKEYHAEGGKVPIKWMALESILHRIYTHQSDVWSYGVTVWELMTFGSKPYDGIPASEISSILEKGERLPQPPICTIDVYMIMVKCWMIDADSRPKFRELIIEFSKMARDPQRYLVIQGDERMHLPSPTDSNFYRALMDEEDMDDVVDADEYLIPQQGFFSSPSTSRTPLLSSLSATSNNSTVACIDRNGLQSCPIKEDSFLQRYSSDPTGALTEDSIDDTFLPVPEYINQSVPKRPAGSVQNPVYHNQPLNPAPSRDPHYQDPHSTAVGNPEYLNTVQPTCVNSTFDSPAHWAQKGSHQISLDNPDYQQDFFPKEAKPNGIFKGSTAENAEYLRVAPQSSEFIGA

Turning to `C=CC(=O)N1C[C@@H](F)[C@H](Nc2nc(Nc3cnn(C)c3)nc3[nH]cc(Cl)c23)C1` (single isomer, unassigned) [Example 83], the IC50 was 10 to 100 nM in [1]; 100 to 1000 nM in [2]; 5 nM in [3]; 10 to 100 nM in [4]; 10 to 100 nM in test [5]; 31 nM in test [6]. Further, the IC50 worked out at 87 nM in test [7] and 450 nM in test [8].

Turning to `C=CC(=O)N(C)[C@H]1C[C@H](Oc2nc(Nc3cnn(C)c3)nc3[nH]cc(-c4cccnc4)c23)C1` [Example 13, N-methyl-N-[trans-3-({2-[(1-methyl-1H-pyrazol-4-yl)amino]-5-(pyridin-3-yl)-7H-pyrrolo[2,3-d]pyrimidin-4-yl}oxy)cyclobutyl]prop-2-enamide], the IC50 in test [1] is 100 to 1000 nM; in test [2], 100 to 1000 nM; in [3] it was 89 nM; in [4], 100 to 1000 nM; in [5], 100 to 1000 nM; in [6], 48 nM. Moreover, the half-inhibitory concentration (IC50) in test [7] was 91 nM.

For the compound `C=CC(=O)N1C[C@H](Nc2nc(Nc3cnn(C)c3)nc3[nH]cc(Cl)c23)[C@@H](C(F)F)C1` [Example 85], the IC50 in test [1] is 10 to 100 nM; in test [2] it was greater than 1000 nM; in test [4], 10 to 100 nM; in test [5] it was 100 to 1000 nM; in test [6] it was 61 nM; in test [9], 191 nM. Besides, the IC50 in test [7] was 154 nM.

Take `C=CC(=O)N1C[C@H](Nc2nc(Nc3cnn(C)c3)nc3[nH]cc(Cl)c23)[C@@H](C(F)(F)F)C1` [Example 87]: the IC50 in test [1] is 10 to 100 nM; in test [2], greater than 1000 nM; in test [3], 14 nM; in [4], 100 to 1000 nM; in test [5], 100 to 1000 nM; in test [6], 43 nM. For the same compound, the IC50 in test [7] came to 48 nM; in [8], 948 nM.

As for `C=CC(=O)N(C)[C@H]1C[C@H](Oc2nc(Nc3cnn(C)c3)nc3[nH]cc(-c4ccccn4)c23)C1` [Example 89], the IC50 in test [1] is 100 to 1000 nM; in test [2], 100 to 1000 nM; in test [3], 6 nM; in test [4] it was 10 to 100 nM; in test [10], 10 to 100 nM; in [6], 33 nM. Also, the IC50 in test [7] is 42 nM; in test [8], 1650 nM.

Turning to `C=CC(=O)N1C[C@H](COc2nc(Nc3cnn(C)c3)nc3[nH]cc(Cl)c23)[C@@H](F)C1` [Example 90], in test [1], the half-inhibitory concentration (IC50) lay within 10 to 100 nM.

Turning to `C=CC(=O)N(C)[C@H]1C[C@H](Oc2nc(Nc3cnn(C)c3)nc3[nH]cc(-c4cnn(C)c4)c23)C1` [Example 95], the IC50 was 1570 nM in [3], 2440 nM in [6], 8570 nM in test [7] and greater than 10000 nM in test [8].

Take `C=CC(=O)N1CC[C@@H](Nc2nc(Nc3cnn(C)c3)nc3[nH]cc(Cl)c23)C1` [Example 96]: the concentration for half-maximal inhibition (IC50) is 100 to 1000 nM in test [1]; 100 to 1000 nM in test [2]; 15 nM in test [3]; 10 to 100 nM in test [4]; 10 to 100 nM in test [5]; 101 nM in [6]. The IC50 amounted to 342 nM in test [7] and 2180 nM in test [8].

As for `C=CC(=O)N(C)[C@H]1C[C@H](Nc2nc(Nc3cn(C)nc3C)nc3[nH]cc(Cl)c23)C1` [Example 98], the IC50 in [1] is 10 to 100 nM; in test [2], 100 to 1000 nM; in [4] it was 10 to 100 nM; in test [5], 10 to 100 nM; in test [6], 139 nM; in test [9], 27 nM. The values for the IC50 in [7] and in test [8] were 472 nM and 4290 nM, respectively.

Take `C=CC(=O)N1C[C@@H]2CN(c3nc(Nc4cn(C)nc4OC)nc4[nH]cc(Cl)c34)C[C@@H]2C1` [Example 99]: the IC50 in [1] was greater than 1000 nM; in [2], greater than 1000 nM; in [4] it was 100 to 1000 nM; in test [5], 100 to 1000 nM; in test [11] it was 482 nM; in test [9] it was 377 nM. The IC50 is 812 nM in test [7] and 3440 nM in test [8].

For `C=CC(=O)N1C[C@H](COc2nc(Nc3cnn(C)c3)nc3[nH]cc(Cl)c23)[C@@H](C(F)(F)F)C1` [Example 110], the IC50 in [1] was 100 to 1000 nM; in test [2], 100 to 1000 nM; in [12], greater than 1000 nM.

On to `C=CC(=O)N[C@]1(C)C[C@@H](Oc2nc(Nc3cnn(C)c3)nc3[nH]cc(Cl)c23)C1` [Example 113], for which the IC50 in test [3] is 457 nM; in test [6], greater than 8580 nM; in [7] it was greater than 10000 nM; in test [8], greater than 10000 nM.

As to `C=CC(=O)N1C[C@H](COc2nc(Nc3cn(CC#N)nc3C)nc3[nH]cc(Cl)c23)[C@@H](OC)C1` [Example 115], the IC50 in [3] was 73 nM; in test [6], 85 nM; in test [7] it was 953 nM; in [8], greater than 10000 nM.

For `C=CC(=O)N(C)[C@H]1C[C@H](Oc2nc(Nc3cnn(CC#N)c3)nc3[nH]cc(Cl)c23)C1` [Example 116], the IC50 in test [3] was 24 nM; in test [4], 10 to 100 nM; in [6], 107 nM; in [7], 328 nM.
